From article PMC10574094, “Discovery of a SHP2 Degrader with In Vivo Anti-Tumor Activity” (Molecules, 2023) come the findings set out here.

The assay addresses T1, SHP2 (Homo sapiens, UniProt Q06124).
T1 sequence (Q06124 1-593): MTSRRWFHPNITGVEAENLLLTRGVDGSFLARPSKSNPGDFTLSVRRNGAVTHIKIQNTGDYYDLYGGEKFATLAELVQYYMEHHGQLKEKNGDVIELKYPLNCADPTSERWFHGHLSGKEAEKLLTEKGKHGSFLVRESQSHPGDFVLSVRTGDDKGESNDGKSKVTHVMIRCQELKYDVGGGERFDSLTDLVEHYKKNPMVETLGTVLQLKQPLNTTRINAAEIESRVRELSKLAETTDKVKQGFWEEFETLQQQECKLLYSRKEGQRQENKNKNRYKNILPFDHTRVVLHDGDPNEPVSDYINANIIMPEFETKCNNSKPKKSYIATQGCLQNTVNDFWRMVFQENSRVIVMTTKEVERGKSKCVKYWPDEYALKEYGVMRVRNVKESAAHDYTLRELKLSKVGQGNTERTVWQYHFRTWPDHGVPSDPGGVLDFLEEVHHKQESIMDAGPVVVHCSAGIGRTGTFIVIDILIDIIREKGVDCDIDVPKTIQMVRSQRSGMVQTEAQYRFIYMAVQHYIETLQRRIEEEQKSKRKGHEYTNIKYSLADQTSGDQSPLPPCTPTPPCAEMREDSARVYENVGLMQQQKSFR
Put plainly: SHP2 degradation by Western blotting in HEK293 cells. It is filed as cell-based. Set-up: endogenous in cells; host or cells: HEK293. As to conditions: HEK293 cells.

Consider `Cc1ncsc1-c1ccc([C@H](C)NC(=O)[C@@H]2C[C@@H](O)CN2C(=O)[C@@H](NC(=O)CCCCCCCCCN2CCN(C(=O)CCCCCC3(CN)CCN(c4cnc(Sc5cccc(Cl)c5Cl)c(N)n4)CC3)CC2)C(C)(C)C)cc1` [P9, (2S,4R)-1-((S)-2-(10-(4-(6-(1-(6-amino-5-((2,3-dichlorophenyl)thio)pyrazin-2-yl)-4-(aminomethyl)piperidin-4-yl)hexanoyl)piperazin-1-yl)decanamido)-3,3-dimethylbutanoyl)-4-hydroxy-N-((S)-1-(4-(4-methylthiazol-5-yl)phenyl)ethyl)pyrrolidine-2-carboxamide], for which the “time at which maximal SHP2 depletion was achieved” value was 16 h. Further, the DC50 (16 h of treatment, read-out: DC50 (concentration required for 50% degradation of protein)) stood at 35.2 ± 1.5 nM. In addition, the hook effect entry (tested concentration range) is recorded as “no significant hook effect”. Further, the SHP2 protein degraded result (within 6 h of P9 treatment) is listed as “Over 90%”.
